Reference: US20250215039A1, “NUCLEOSIDES FOR TREATING CANCER” (PRIMEFOUR THERAPEUTICS, INC., priority 2022, published 2025)
Like-named read-outs stand apart in the source and are kept apart here.

What was measured:
cancer cell lines = assay: Cancer cell proliferation activity (CellTiterGlo, 72 h); format: cell-based; conditions: 72 h, 72 h, read-out: IC50 cell proliferation
Summary of the method: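 Cells seeded overnight at 37 °C, then dosed with compound at 0.1% final DMSO and incubated 72 h at 37 °C (5% or 10% CO2 by medium).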

[1] = target: human cytidine deaminase (CDA) (Homo sapiens, UniProt P32320); assay: Metabolism by human cytidine deaminase (CDA), substrate absorbance at 290 nm; conditions: rate of substrate conversion at 200 μM; could not be fitted
human cytidine deaminase (CDA), sequence (P32320 whole entry): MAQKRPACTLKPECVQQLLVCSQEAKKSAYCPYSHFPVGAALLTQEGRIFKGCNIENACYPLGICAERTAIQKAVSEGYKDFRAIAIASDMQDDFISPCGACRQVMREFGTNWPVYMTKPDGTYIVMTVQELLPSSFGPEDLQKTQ
Procedure: Transfer 7.2 μl of each of the substrate DMSO stock in step 2 into a 500 μl 96-Well V-bottom Microplate, clear SBS footprint, cat #P-96-450V-C
Add 352.8 μl assay buffer to the wells
For deaminated product compounds mix 4 μl product with 196 μl assay buffer
This was incubated at 37° C. for 1 h. 200 μl of this mixture was transferred into the assay plate to serve as the product control.
Product+buffer: mix 80 ul of the 2.5× intermediate product stocks (from step 3) with 120 ul assay buffer into product control (no enzyme) wells
Incubate the plate alongside the 20 nM CDA enzyme intermediate stock at 37° C. to temperature equilibrate reagents
Add 120 μl of the 20 nM enzyme mix into the Substrate+CDA wells and start reading at 290 nm every 30 s for about 60 min
50 and 200 uM substrate and product
In 100 mM Tris, pH 7.5, 100 mM KCl, 0.8% carryover DMSO
5 min incubation at 37° C.
Absorbance at 290 nm every 30 s at 37° C. for 1 h using FlexStation 3
Convert A290 to concentration of substrate remaining at time t after enzyme addition:
[formula] • where: • St=absorbance reading of: substrate+CDA wells at time t • So=Average absorbance reading of: substrate+buffer wells • Po=Average absorbance reading of: product+buffer wells • [S]t=initial substrate concentration • Use GraphPad to plot [substrate] against time to calculate initial velocity or slope (μMs^−1) i.e. the linear range of each curve • Express rate in s^−1 by dividing initial velocity by the total enzyme concentration.
Plot rate against [substrate] and fit data to standard Michaelis Menten equation to obtain kcat and KM parameters.

IC50 (cancer cell lines; 5637 (bladder)): 450 nM
IC50 (cancer cell lines; CLS439 (bladder)): 2270 nM
IC50 (cancer cell lines; HS729 (muscle)): 580 nM
IC50 (cancer cell lines; J82 (bladder)): 760 nM
IC50 (cancer cell lines; JAR (placenta)): > 50000 nM
IC50 (cancer cell lines; MT3 (breast)): 80 nM
IC50 (cancer cell lines; PANCI (pancreas)): 620 nM
IC50 (cancer cell lines; PC3 (prostate)): 180 nM
IC50 (cancer cell lines; RD (muscle)): 1030 nM
IC50 (cancer cell lines; T24 (bladder)): 290 nM
IC50 (cancer cell lines; Homo sapiens, A204, 72 h, A204 (muscle)): 20 nM
IC50 (cancer cell lines; Homo sapiens, A549, 72 h, A549 (lung)): 440 nM
IC50 (cancer cell lines; Homo sapiens, A2780, 72 h, A2780 (ovary)): 720 nM
IC50 (cancer cell lines; Homo sapiens, A-375, 72 h, A375 (skin)): 710 nM
IC50 (cancer cell lines; Homo sapiens, A-431, 72 h, A431 (skin)): 470 nM
IC50 (cancer cell lines; Homo sapiens, ACHN, ACHN (kidney)): 390 nM
IC50 (cancer cell lines; Homo sapiens, ASPC1, 72 h, ASPC1 (pancreas)): 580 nM
IC50 (cancer cell lines; Homo sapiens, BT-20, 72 h, BT20 (breast)): 580 nM
IC50 (cancer cell lines; Homo sapiens, BXPC-3, 72 h, BXPC3 (pancreas)): 540 nM
IC50 (cancer cell lines; Homo sapiens, C-33-A, C33A (endometrial)): 240 nM
IC50 (cancer cell lines; Homo sapiens, CAKI-1, 72 h, CAKI1 (kidney)): 110 nM
IC50 (cancer cell lines; Homo sapiens, COLO 205, 72 h, COLO205 (colon)): 210 nM
IC50 (cancer cell lines; Homo sapiens, Caco-2, 72 h, CACO2 (colon)): > 50000 nM
IC50 (cancer cell lines; Homo sapiens, Calu-6, 72 h, CALU6 (lung)): 720 nM
IC50 (cancer cell lines; Homo sapiens, DU-145, 72 h, DU145 (prostate)): 310 nM
IC50 (cancer cell lines; Homo sapiens, EFO-21, 72 h, EFO21 (ovary)): 790 nM
IC50 (cancer cell lines; Homo sapiens, Granta-519, 72 h, GRANTA-519 (hematological)): 70 nM
IC50 (cancer cell lines; Homo sapiens, HCT-15, 72 h, HCT15 (colon)): 460 nM
IC50 (cancer cell lines; Homo sapiens, HCT-116, 72 h, HCT116 (colon)): 470 nM
IC50 (cancer cell lines; Homo sapiens, HEK293, 72 h, HEK293 (kidney)): > 50000 nM
IC50 (cancer cell lines; Homo sapiens, HT-1080, 72 h, HT1080 (connective tissue)): 380 nM
IC50 (cancer cell lines; Homo sapiens, HeLa, HELA (endometrial)): 1000 nM
IC50 (cancer cell lines; Homo sapiens, HepG2, 72 h, HEPG2 (liver)): 1000 nM
IC50 (cancer cell lines; Homo sapiens, Hs-578T, HS578T (breast)): 970 nM
IC50 (cancer cell lines; Homo sapiens, IGROV-1, 72 h, IGROV1 (ovary)): 510 nM
IC50 (cancer cell lines; Homo sapiens, JIMT-1, 72 h, JIMT1 (breast)): 190 nM
IC50 (cancer cell lines; Homo sapiens, Kasumi 1, 72 h, KASUMI-1 (hematological)): 270 nM
IC50 (cancer cell lines; Homo sapiens, L-363, 72 h, L-363 (hematological)): > 50000 nM
IC50 (cancer cell lines; Homo sapiens, LoVo, LOVO (colon)): 290 nM
IC50 (cancer cell lines; Homo sapiens, MDA-MB-231, 72 h, MDAMB231 (breast)): 100 nM
IC50 (cancer cell lines; Homo sapiens, MDA-MB-435, 72 h, MDAMB435 (skin)): 1300 nM
IC50 (cancer cell lines; Homo sapiens, MDA-MB-436, 72 h, MDAMB436 (breast)): 950 nM
IC50 (cancer cell lines; Homo sapiens, MG-63, 72 h, MG63 (bone)): 480 nM
IC50 (cancer cell lines; Homo sapiens, MINO, MINO (hematological)): 60 nM
IC50 (cancer cell lines; Homo sapiens, MV4-11, 72 h, MV4-11 (hematological)): 840 nM
IC50 (cancer cell lines; Homo sapiens, NCI-H23, 72 h, NCI-H23 (lung)): 720 nM
IC50 (cancer cell lines; Homo sapiens, NCI-H292, 72 h, NCIH292 (lung)): 920 nM
IC50 (cancer cell lines; Homo sapiens, NCI-H460, 72 h, NCIH460 (lung)): 770 nM
IC50 (cancer cell lines; Homo sapiens, OVCAR-3, 72 h, OVCAR3 (ovary)): 640 nM
IC50 (cancer cell lines; Homo sapiens, PLC-PRF-5, 72 h, PLCPRF5 (liver)): > 50000 nM
IC50 (cancer cell lines; Homo sapiens, Panc1005, 72 h, PANC1005 (pancreas)): > 50000 nM
IC50 (cancer cell lines; Homo sapiens, Ramos, RAMOS (hematological)): 240 nM
IC50 (cancer cell lines; Homo sapiens, SAOS-2, 72 h, SAOS2 (bone)): 110 nM
IC50 (cancer cell lines; Homo sapiens, SF-268, 72 h, SF268 (brain)): 260 nM
IC50 (cancer cell lines; Homo sapiens, SK-BR-3, 72 h, SKBR3 (breast)): 260 nM
IC50 (cancer cell lines; Homo sapiens, SK-HEP1, 72 h, SKHEP1 (liver)): 320 nM
IC50 (cancer cell lines; Homo sapiens, SK-LMS-1, 72 h, SKLMS1 (uterus)): 860 nM
IC50 (cancer cell lines; Homo sapiens, SK-N-SH, SKNSH (brain)): > 50000 nM
IC50 (cancer cell lines; Homo sapiens, SNB-75, 72 h, SNB75 (brain)): 550 nM
IC50 (cancer cell lines; Homo sapiens, SU-DHL10, 72 h, SU-DHL-10 (hematological)): 560 nM
IC50 (cancer cell lines; Homo sapiens, SU-DHL-6, 72 h, SU-DHL-6 (hematological)): 310 nM
IC50 (cancer cell lines; Homo sapiens, THP-1, 72 h, THP-1 (hematological)): 650 nM
IC50 (cancer cell lines; Homo sapiens, U-87 MG, U87MG (brain)): 400 nM
IC50 (cancer cell lines; Homo sapiens, UO-31, 72 h, UO31 (kidney)): 550 nM
IC50 (cancer cell lines; Homo sapiens, WSU-NHL, WSU-NHL (hematological)): 150 nM
IC50 (cancer cell lines; NCI-H358M, NCIH358M (lung)): 120 nM
IC50 (cancer cell lines; PBMC, PBMC (hematological)): 710 nM
IC50 (cancer cell lines; RD-ES, RDES (bone)): 1900 nM
substrate conversion by CDA (Inactive) [1]: Inactive
SMILES: Nc1ccn([C@H]2C[C@H](O)[C@](CO)(CF)O2)c(=O)n1 [Cpd. No. 198, 4-amino-1-((2R,4S,5R)-5-(fluoromethyl)-4-hydroxy-5-(hydroxymethyl)tetrahydrofuran-2-yl)pyrimidin-2(1H)-one]
